Test results reported in the supplement of paper PMC10307832.

Assays:
Experiment in all cases: relative viability (nuclei count vs DMSO), 5 days (fraction); higher = more cells survive
Metformin + Bortezomib = compound: CN(C)C(=N)NC(=N)N [Metformin] + CC(C)C[C@H](NC(=O)[C@H](Cc1ccccc1)NC(=O)c1cnccn1)B(O)O [Bortezomib] (partner 0.002 µM)
In short: (§1)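 Lung cancer cell lines, seeded in 1536-well plates, were treated the following day by pin tool with a single drug or with five library-drug doses (not always all listed) in √10 steps on top of a fixed anchor-drug dose. Cells were fixed and nuclei stained in one step after 5 days, and nuclei were counted. Relative viability is the nuclei count for treated wells divided by that for vehicle wells, reported as medians of duplicate plates.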

Metformin + Dasatinib = compound: CN(C)C(=N)NC(=N)N [Metformin] + Cc1nc(Nc2ncc(C(=O)Nc3c(C)cccc3Cl)s2)cc(N2CCN(CCO)CC2)n1 [Dasatinib] (partner 0.075 µM)
In short: as §1

Apatinib + Trametinib = compound: N#CC1(c2ccc(NC(=O)c3cccnc3NCc3ccncc3)cc2)CCCC1 [Apatinib] + CC(=O)Nc1cccc(-n2c(=O)n(C3CC3)c(=O)c3c(Nc4ccc(I)cc4F)n(C)c(=O)c(C)c32)c1 [Trametinib] (partner 0.02 µM)
In short: as §1

Apatinib + Foretinib = compound: N#CC1(c2ccc(NC(=O)c3cccnc3NCc3ccncc3)cc2)CCCC1 [Apatinib] + COc1cc2c(Oc3ccc(NC(=O)C4(C(=O)Nc5ccc(F)cc5)CC4)cc3F)ccnc2cc1OCCCN1CCOCC1 [Foretinib] (partner 0.25 µM)
In short: as §1

| Cell Line | relative viability (Metformin + Bortezomib; first compound 10 µM) | relative viability (Metformin + Bortezomib; first compound 31.62 µM) | relative viability (Metformin + Bortezomib; first compound 100 µM) | relative viability (Metformin + Bortezomib; first compound 316.23 µM) | relative viability (Metformin + Bortezomib; first compound 1000 µM) | relative viability (Metformin + Dasatinib; first compound 10 µM) | relative viability (Metformin + Dasatinib; first compound 31.62 µM) | relative viability (Metformin + Dasatinib; first compound 100 µM) | relative viability (Metformin + Dasatinib; first compound 316.23 µM) | relative viability (Metformin + Dasatinib; first compound 1000 µM) | relative viability (Apatinib + Trametinib; first compound 0.08 µM) | relative viability (Apatinib + Trametinib; first compound 0.253 µM) | relative viability (Apatinib + Trametinib; first compound 0.8 µM) | relative viability (Apatinib + Trametinib; first compound 2.53 µM) | relative viability (Apatinib + Trametinib; first compound 8 µM) | relative viability (Apatinib + Foretinib; first compound 0.08 µM) | relative viability (Apatinib + Foretinib; first compound 0.253 µM) | relative viability (Apatinib + Foretinib; first compound 0.8 µM) | relative viability (Apatinib + Foretinib; first compound 2.53 µM) | relative viability (Apatinib + Foretinib; first compound 8 µM) |
| --- | --- | --- | --- | --- | --- | --- | --- | --- | --- | --- | --- | --- | --- | --- | --- | --- | --- | --- | --- | --- |
| HCC-366 | 1.09 | 1.11 | 1.01 | 1.02 | 1.12 | 0.565 | 0.566 | 0.632 | 0.568 | 0.81 | 0.336 | 0.393 | 0.369 | 0.314 | 0.273 | 0.977 | 0.904 | 0.966 | 0.93 | 0.963 |
| BEN | 1.08 | 1.18 | 0.775 | 0.993 | 0.511 | 0.421 | 0.409 | 0.34 | 0.281 | 0.414 | 1.22 | 0.944 | 1.11 | 0.948 | 0.687 | 0.477 | 0.548 | 0.668 | 0.558 | 0.726 |
| NCI-H520 | 0.777 | 0.716 | 0.75 | 0.67 | 0.928 | 0.24 | 0.195 | 0.265 | 0.195 | 0.217 | 0.666 | 0.66 | 0.787 | 0.485 | 0.325 | 0.865 | 0.72 | 0.844 | 0.558 | 0.651 |
| NCI-H2023 |  | 1.03 | 0.964 |  | 1.1 | 0.599 | 0.618 | 0.703 | 0.493 | 0.662 | 0.635 | 0.647 | 0.492 | 0.489 | 0.399 | 0.963 | 0.751 | 0.849 | 1.02 | 0.794 |
| NCI-H838 | 1.02 | 1.14 | 0.926 | 0.957 | 1.23 | 0.271 | 0.254 | 0.356 | 0.241 | 0.348 | 0.626 | 0.573 | 0.473 | 0.49 | 0.467 | 1.14 | 1.18 | 0.997 | 0.946 | 0.986 |
| SW 1573 | 1.19 | 1.15 | 0.963 | 1 | 1.36 | 0.589 | 0.833 | 0.708 | 0.425 | 0.551 | 0.554 | 0.729 | 0.543 | 0.603 | 0.352 | 0.981 | 1.07 | 0.963 | 0.854 | 0.821 |
| HCC-15 | 0.617 | 1.08 | 1.04 | 0.932 | 1.09 |  | 0.625 | 0.581 | 0.556 | 0.584 | 0.393 | 0.295 | 0.327 | 0.367 | 0.308 | 1.1 | 0.866 | 1 | 0.999 | 0.834 |
| NCI-H1666 | 0.789 | 0.942 | 0.71 | 0.828 | 0.864 | 0.752 | 0.957 | 0.79 | 0.798 | 0.779 | 0.843 | 0.942 | 0.783 | 0.81 | 0.681 | 0.953 | 0.998 | 0.942 | 0.943 | 1.03 |
| A-427 | 0.997 | 1 | 0.94 | 0.963 | 0.901 | 0.53 | 0.722 | 0.676 | 0.74 | 0.695 | 0.832 | 0.741 | 0.726 | 0.737 | 0.521 | 1.22 | 0.828 | 1.03 | 1.01 | 0.598 |
| LU99A | 0.96 | 1.06 | 0.988 | 0.903 | 1.04 | 0.415 | 0.459 | 0.511 | 0.516 | 0.538 | 0.58 | 0.552 | 0.543 | 0.486 | 0.29 | 0.88 | 0.891 | 0.769 | 0.78 | 0.682 |
| NCI-H727 | 1.05 | 0.756 | 1.02 | 0.774 | 0.934 | 0.399 | 0.451 | 0.478 |  | 0.49 | 0.386 |  | 0.386 | 0.416 | 0.342 | 1.02 | 0.676 | 0.937 | 0.835 | 0.912 |
| EPLC-272H | 0.837 | 0.91 | 0.907 | 0.909 | 1.22 | 0.358 | 0.445 | 0.462 | 0.426 | 0.394 | 0.297 | 0.264 | 0.301 | 0.321 | 0.234 | 0.773 |  | 0.802 | 0.671 | 0.394 |
